Data as given in US8017576B2, “Methods and compositions to treat mucositis” (The University of Chicago, priority 2005, dated 2011).
Where no end group is shown, it is not given here.

How the values were obtained:
[1] = test system: BDF-1 mice; experiment: Study 1: epithelial thickening of oral mucosal surfaces in mice; type: in vivo; conditions: Study 1, mice
Experimental: (§1) The capacity of the AMP77-97 peptide to induce epithelial thickening of oral mucosal surfaces in mice and hamsters was studied to determine if these animals could be used to evaluate the potential of AMP77-97 peptide in the treatment of oral mucositis. In Study 1, female BDF-1 mice (n=8) and Syrian golden hamsters (n=8) were given daily subcutaneous injections of saline, mouse AMP77-97 peptide at 5 mg/kg, or 25 mg/kg for five days. […] There also appeared to be an increase in both hyperplasia and hyperkeratosis with increasing dose (more prevalent/pronounced in the animals receiving 25 mg/kg than those receiving 5 mg/kg) and duration of dosing (there were some effects seen at 2 days, but were more readily seen after 5 consecutive days). The effect was more easily observed on the dorsal than the ventral surface of the tongue.

[2] = test system: Syrian golden hamsters; experiment: Study 1: epithelial thickening of oral mucosal surfaces in hamsters; type: in vivo, hamster; conditions: Study 1, hamsters
Experimental: as §1

[3] = test system: BDF-1, C3H/OuJ, C3H/HeN, C57Bl/6 and Balb c mice; experiment: Study 2: thickening of oral epithelium in five mouse strains; type: in vivo; conditions: Study 2, five mouse strains
From the text: In Study 2, the effect of AMP77-97 peptide on thickening in the oral epithelium was compared in five different strains of mice. […] Hyperkeratosis was again observed in the esophagus of BDF-1 mice, and was also seen in C3H/HeN mice.

[4] = test system: BDF-1 mice; conditions: mouse, in vivo
Experimental: AMP77-97 peptide (25 mg/kg, s.c.) was administered 5 days before and 10 days after radiation of the tongue in the BDF-1 mouse model of oral mucositis. Photomicrographs were prepared 10 days after radiation. Tissue from control irradiated mice treated with vehicle (saline) show substantial epithelial and connective tissue cell loss in both compartments compared to normal mouse tongue.
In Study 3, mucositis was induced in BDF-1 mice (n=40) by administering a single dose of radiation of 30 Gy to the snout. To evaluate the effect of AMP77-97 peptide in this setting of radiation-induced injury of the epithelial and connective tissue compartments of the tongue, mouse AMP77-97 peptide (25 mg/kg) was administered once daily subcutaneously before and after radiation (days −5 to 10; radiation on day 0). […] The evaluation was performed on day 10 when mucositis injury is at its peak. This effect on connective tissue supported that AMP77-97 peptide has beneficial effects on multiple cell and tissue types damaged by radiation.

[5] = test system: hamster cheek pouch; experiment: Study 6: radiation-induced cheek pouch mucositis, topical dosing; type: in vivo; conditions: each of the hamster cheek pouch studies and the mouse model
Experimental: In a separate test of efficacy (Study 6), AMP77-97 peptide was administered topically into the hamster cheek pouch (n=32). Doses of 0.5, 5 or 50 mg/kg AMP77-97 peptide in PBS were placed in the pouch three times daily from days −5 to −1 before radiation and 1 to 15 after radiation.
Acute Radiation-induced Mucositis. Oral mucositis was induced in hamsters by administering a single dose of radiation of 40 Gy. On day 0, under anesthesia (intraperitoneal injection of ketamine [160 mg/kg] and xylazine [8 mg/kg]), the left buccal pouch was everted, fixed, and radiated while the rest of the animal was shielded with lead cover. Radiation was generated using a 160-kV potential (18.75-ma) source at a focal distance of about 21 cm, hardened with a 3-mm Al filtration system. Ionizing radiation was targeted at the left buccal pouch mucosa at a rate of 1.32 Gy/minute.
Mucositis Evaluation: The progression of mucositis was monitored daily for both models. Every other day starting on day 6 postirradiation, animals were anesthetized using inhalation anesthesia, and the left buccal pouch was everted and photographed. At the conclusion of the study's clinical phase, film was developed, and resulting photos were randomly numbered and then scored in blinded fashion by two observers. […] Severity of oral mucositis (OM) was calculated using the scores per treatment group on each observation day (mean±SE). […]

[6] = test system: human colonic Caco2 (C2) cell monolayers; experiment: Tight junction recovery after low-calcium disruption, ZO-1 confocal microscopy; type: cell-based; conditions: low-calcium medium (3 μM) 1 hour, assessed 2 hours after addition; AMP peptide 8 μg/ml, KGF-1 100 ng/ml, EGF 100 ng/ml
Experimental: The AMP77-97 peptide prevented decreases in TJ proteins and epithelial integrity seen after treatment of human colonic Caco2 (C2) cell monolayers with the oxidant monochloramine, which disrupts intercellular junctions (FIG. 2; C,D). These cells were exposed to low-calcium medium (3 μM) for 1 hr to disrupt TJs, and then allowed to recover in medium containing AMP77-97 peptide, epidermal growth factor (EGF) or keratinocyte growth factor (KGF-1) which are known epithelial cell mitogens that might facilitate recovery of disrupted TJs. […] At the molecular level, AMP77-97 peptide facilitates the formation of TJs by enhancing translocation of several proteins (protein kinase C-zeta, Par6, Cdc42, ECT2 and Par3) from the cytosol into TJ domains.
Localization of the tight junction protein ZO-1 was monitored by indirect immunofluorescence laser scanning confocal microscopy in confluent monolayers of C2 cells. […] To disrupt tight junctions, cells were switched to low-calcium medium (3 μM) for 1 hour. Then a growth factor at a known mitogenic concentration was added to the medium, and 2 hours later its effect on tight junction formation was assessed by confocal microscopy. Vehicle, AMP peptide (8 μg/ml), KGF-1 (100 ng/ml), and EGF (100 ng/ml) were compared.

Row | Substance | toxicity (weight gain, mortality) [1] | toxicity (weight gain, mortality) [2] | toxicity (weight gain, mortality) [3] | toxicity [4] | toxicity as measured by weight loss or mortality [5] | formation of new tight junctions / localization of ZO-1 [6]
1 | LDALVKEKKLQGKGPGGPPPK [AMP77-97 peptide] | no evidence of any toxicity | no evidence of any toxicity | no evidence of any toxicity | no evidence of any toxicity | no signs of toxicity | 
2 | EGF: epidermal growth factor, known epithelial cell mitogen [reference compound] |  |  |  |  |  | persistent separation of cells with TJ disruption and apparent loss of ZO-1
